We go through 29 molecules from patent publication US20250034170A1, “SMALL MOLECULE MODULATORS OF GLUCOCEREBROSIDASE ACTIVITY AND USES THEREOF” (Vanqua Bio, Inc., priority 2021, published 2025).

Bounds are passed on as bounds.

For the assay, the target named is T1, GCase (Homo sapiens, UniProt P04062).
T1 construct: endogenous in cells; host or cells: HeLa cells
T1 sequence (P04062 40-536): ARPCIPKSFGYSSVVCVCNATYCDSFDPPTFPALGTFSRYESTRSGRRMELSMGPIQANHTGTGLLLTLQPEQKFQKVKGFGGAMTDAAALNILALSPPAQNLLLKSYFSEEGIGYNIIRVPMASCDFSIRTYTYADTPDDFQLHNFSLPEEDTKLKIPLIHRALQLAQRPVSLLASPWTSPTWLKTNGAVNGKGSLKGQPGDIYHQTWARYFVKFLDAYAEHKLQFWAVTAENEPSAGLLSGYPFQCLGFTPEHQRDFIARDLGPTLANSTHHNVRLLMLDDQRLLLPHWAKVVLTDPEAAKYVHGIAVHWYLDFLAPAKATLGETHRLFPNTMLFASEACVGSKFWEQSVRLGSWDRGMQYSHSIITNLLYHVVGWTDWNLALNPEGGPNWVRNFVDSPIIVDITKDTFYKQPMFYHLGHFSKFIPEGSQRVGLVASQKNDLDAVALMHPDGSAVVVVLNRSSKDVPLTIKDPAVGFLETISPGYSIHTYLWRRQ
Briefly: activation of GCase in a live cell PFB assay in HELA cells. Type of assay: cell-based. The conditions noted are these: activation of GCase, EC50 ranges. The protocol: Exemplary compounds were evaluated for activation of GCase in a live cell PFB assay in HELA cells (essentially as described in Ysselstein et al., “LRRK2 kinase activity regulates lysosomal glucocerebrosidase in neurons derived from Parkinson's disease patients” Nature Communications (2019) 10:5570). […] EC50 ranges: A: <10 μM; B: >10-50 μM; C: >50-100 μM; D: >100 μM.
As a reminder, the EC50 is the concentration that produces a half-maximal response. Read a low EC50 as an effect from little substance. Turning to `Cc1cc(N2CC3(CCN(c4ncc5cnn(CC(F)(F)F)c5n4)C3)C2)nc(C(F)(F)F)n1` [Cmpd 467], the concentration giving a half-maximal response (EC50) is below 10 µM.

Turning to `Cc1cc(N2CC3(CCN(c4ncc5c(C)nn(CC(F)F)c5n4)C3)C2)nc(C(F)(F)F)n1` [Cmpd 468], the 50% effective concentration (EC50) is below 10 µM. The figure for `FC(F)(F)c1ncc(N2CC3(CCN(c4ncc5cnn(C6CCCCO6)c5n4)C3)C2)cn1` (centres unmarked) [Cmpd 469] is above 100 µM; for `FC(F)(F)c1ncc(N2CC3(CCN(c4cnc5cnn(C6CCCCO6)c5n4)C3)C2)cn1` (centres unmarked) [Cmpd 470] it is 10 to 50 µM; for `Cc1cc(N2CC3(CCN(c4ncc5c(C)nn(C6COC6)c5n4)C3)C2)nc(C(F)(F)F)n1` [Cmpd 471] it is below 10 µM. Regarding `FC(F)Cn1ncc2ncc(N3CCC4(CCN(c5ccnc(C(F)(F)F)c5)C4)C3)nc21` (centres unmarked) [Cmpd 472], the concentration giving a half-maximal response (EC50) was above 100 µM. Next, `FC(F)(F)Cn1ncc2ncc(N3CCC4(CCN(c5ccnc(C(F)(F)F)c5)C4)C3)nc21` (centres unmarked) [Cmpd 473]: 10 to 50 µM; `FC(F)(F)c1cc(N2CCC3(CCN(c4ncc5cnn(C6COC6)c5n4)C3)C2)ccn1` (centres unmarked) [Cmpd 474]: above 100 µM. Next, `Cc1nn(C2COC2)c2nc(N3CCC4(CCN(c5ccnc(C(F)(F)F)c5)C4)C3)ncc12` (centres unmarked) [Cmpd 475]: above 100 µM; `Cc1nn(C2COC2)c2nc(N3CCC4(CCN(c5ccnc(C(F)(F)F)c5)C4)C3)cnc12` (centres unmarked) [Cmpd 476]: 50 to 100 µM. The molecule `FC(F)(F)Cn1ncc2ncc(N3CCC4(CC3)CN(c3cc(C(F)(F)F)ccn3)C4)nc21` [Cmpd 477] showed an EC50 below 10 µM. The figure for `FC(F)(F)c1ccnc(N2CC3(CCN(c4ncc5cnn(C6COC6)c5n4)CC3)C2)c1` [Cmpd 478] is below 10 µM. The molecule `Cc1nn(C2COC2)c2nc(N3CCC4(CC3)CN(c3cc(C(F)(F)F)ccn3)C4)ncc12` [Cmpd 479] had a half-maximal effective concentration (EC50) above 100 µM. Molecule `Cc1nn(C2COC2)c2nc(N3CCC4(CC3)CN(c3cc(C(F)(F)F)ccn3)C4)cnc12` [Cmpd 480] had an EC50 of 10 to 50 µM. The figure for `FC(F)Cn1ncc2ncc(N3CCC4(CCN(c5cnc(C(F)(F)F)nc5)C4)C3)nc21` (centres unmarked) [Cmpd 481] is 10 to 50 µM; for `FC(F)Cn1ncc2ncc(N3CCC4(CCN(c5ccc(C(F)(F)F)nc5)C4)C3)nc21` (centres unmarked) [Cmpd 482] it is 10 to 50 µM. `FC(F)Cn1ncc2ncc(N3CCC4(CCN(c5ccc(C(F)(F)F)cn5)C4)C3)nc21` (centres unmarked) [Cmpd 483] registered an EC50 of 10 to 50 µM. Turning to `FC(F)Cn1ncc2ncc(N3CCC4(CCN(c5ccnc(C(F)(F)F)n5)C4)C3)nc21` (centres unmarked) [Cmpd 484], the EC50 was below 10 µM.

`Cc1nn(CC(F)F)c2nc(N3CCC4(CCN(c5ccnc(C(F)(F)F)c5)C4)C3)cnc12` (centres unmarked) [Cmpd 485] displayed a concentration giving a half-maximal response (EC50) above 100 µM. Next, `Cc1nn(CC(F)F)c2nc(N3CCC4(CCN(c5ccnc(C(F)(F)F)c5)C4)C3)ncc12` (centres unmarked) [Cmpd 486]: 50 to 100 µM.

On to `FC(F)(F)c1cc(N2CCC3(CCN(c4cnc5cnn(C6COC6)c5n4)C3)C2)ccn1` (centres unmarked) [Cmpd 487], for which the EC50 lay within 10 to 50 µM. Next, `FC(F)Cn1ncc2cnc(N3CCC4(CCN(c5ccnc(C(F)(F)F)c5)C4)C3)nc21` (centres unmarked) [Cmpd 488]: above 100 µM; `FC(F)(F)Cn1ncc2cnc(N3CCC4(CCN(c5ccnc(C(F)(F)F)c5)C4)C3)nc21` (centres unmarked) [Cmpd 489]: 10 to 50 µM; `Cc1nn(CC(F)F)c2nc(N3CCC4(CC3)CN(c3cc(C(F)(F)F)ccn3)C4)cnc12` [Cmpd 490]: below 10 µM. Molecule `Cc1nn(CC(F)F)c2nc(N3CCC4(CC3)CN(c3cc(C(F)(F)F)ccn3)C4)ncc12` [Cmpd 491] gave an EC50 of 10 to 50 µM.

`FC(F)Cn1ncc2cnc(N3CCC4(CC3)CN(c3cc(C(F)(F)F)ccn3)C4)nc21` [Cmpd 492] came in with a concentration giving a half-maximal response (EC50) of 10 to 50 µM. Next, `FC(F)(F)c1ccnc(N2CC3(CCN(c4cnc5cnn(C6COC6)c5n4)CC3)C2)c1` [Cmpd 493]: below 10 µM; `O=C1CC2(CCN(c3cnc4cnn(CC(F)F)c4n3)C2)CN1c1ccnc(C(F)(F)F)c1` (centres unmarked) [Cmpd 494]: below 10 µM; `Cc1nn(CC(F)F)c2nc(N3CCC4(CC(=O)N(c5ccnc(C(F)(F)F)c5)C4)C3)cnc12` (centres unmarked) [Cmpd 495]: 10 to 50 µM.
